According to patent publication US9260429B2, “Pyrido[3,4-B]indoles and methods of use” (Medivation Technologies, Inc., priority 2008, dated 2016):

Columns and labels:
[1] = molecular target: T1, human recombinant adrenergic α2B receptor (Homo sapiens, UniProt P18089); assay: Adrenergic α2B radioligand binding ([3H]Rauwolscine); conditions: 1 h; read-out: Percent Inhibition of ligand binding Adrenergic (1 μM ligand conc.) α2B
T1 construct: expressed in transfected cells; host or cells: CHO-K1 cells
T1 sequence (P18089 1-450): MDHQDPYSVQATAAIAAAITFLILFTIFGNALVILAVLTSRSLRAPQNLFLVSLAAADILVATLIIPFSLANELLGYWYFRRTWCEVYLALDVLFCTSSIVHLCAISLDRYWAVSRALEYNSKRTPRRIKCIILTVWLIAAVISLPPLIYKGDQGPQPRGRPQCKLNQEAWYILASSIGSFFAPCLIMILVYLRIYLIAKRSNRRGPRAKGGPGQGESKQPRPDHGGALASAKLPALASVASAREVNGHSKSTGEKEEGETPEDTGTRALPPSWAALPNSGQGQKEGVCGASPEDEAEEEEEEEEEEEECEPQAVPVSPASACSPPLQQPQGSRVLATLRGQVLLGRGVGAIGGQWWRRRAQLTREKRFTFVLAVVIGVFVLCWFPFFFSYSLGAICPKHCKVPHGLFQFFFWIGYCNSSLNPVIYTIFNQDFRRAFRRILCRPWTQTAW
Procedure: To evaluate in radioligand binding assays the activity of compounds of the invention, human recombinant adrenergic α2B receptor expressed in Chinese hamster ovary (CHO-K1) cells (Uhlen S et al. Eur J. Pharmacol. 343(1):93, 1998) in a modified Tris-HCl buffer (50 mM Tris-HCl, pH 7.4, 12.5 mM MgCl2, 1 mM EDTA, 0.2% BSA) was used. Compounds of the invention were incubated with 2.5 nM [^3H]Rauwolscine for 60 minutes at 25° C. Non-specific binding was estimated in the presence of 10 μM Prozosin. Receptor proteins were filtered and washed, the filters were then counted to determine [^3H]Rauwolscine specifically bound. Compounds were screened at 1 μM or lower, using 1% DMSO as vehicle. Biochemical assay results are presented as the percent inhibition of specific binding in Table 4.

[2] = molecular target: T2, human recombinant serotonin (5-Hydroxytryptamine) 5-HT2C receptor (Homo sapiens, UniProt P28335); assay: Serotonin 5-HT2C radioligand binding ([3H]Mesulergine); conditions: for inhibition at 1 µM: 1 h, read-out: Percent Inhibition of ligand binding Serotonin (1 μM ligand concentration) 5-HT2C
T2 construct: expressed in transfected cells; host or cells: CHO-K1 cells
T2 sequence (P28335 33-458): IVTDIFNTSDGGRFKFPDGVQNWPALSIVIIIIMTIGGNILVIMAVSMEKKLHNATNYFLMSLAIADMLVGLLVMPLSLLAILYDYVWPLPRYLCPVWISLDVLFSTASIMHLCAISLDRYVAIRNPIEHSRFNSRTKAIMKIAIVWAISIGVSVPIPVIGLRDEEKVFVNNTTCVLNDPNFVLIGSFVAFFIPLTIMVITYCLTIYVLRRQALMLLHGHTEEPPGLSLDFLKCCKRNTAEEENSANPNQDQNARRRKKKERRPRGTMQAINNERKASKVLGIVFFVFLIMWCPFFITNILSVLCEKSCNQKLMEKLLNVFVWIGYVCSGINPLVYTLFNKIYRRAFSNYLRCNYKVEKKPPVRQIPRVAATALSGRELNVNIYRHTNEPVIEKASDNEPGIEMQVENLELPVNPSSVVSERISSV
Procedure: Compounds of the invention were incubated with 1 nM [^3H]Mesulergine for 60 minutes at 25° C. Non-specific binding was estimated in the presence of 1 μM Mianserin. Receptor proteins were filtered and washed, the filters were then counted to determine [^3H]Mesulergine specifically bound. […] Biochemical assay results are presented as the percent inhibition of specific binding in Table 5.

[3] = molecular target: T3, human recombinant adrenergic α1D receptor (Homo sapiens, UniProt P25100); assay: Adrenergic α1D radioligand binding ([3H]Prozosin); conditions: 1 h; read-out: Percent Inhibition of ligand binding Adrenergic (1 μM ligand conc.) α1D
T3 construct: expressed in transfected cells; host or cells: HEK-293 cells
T3 sequence (P25100 1-572): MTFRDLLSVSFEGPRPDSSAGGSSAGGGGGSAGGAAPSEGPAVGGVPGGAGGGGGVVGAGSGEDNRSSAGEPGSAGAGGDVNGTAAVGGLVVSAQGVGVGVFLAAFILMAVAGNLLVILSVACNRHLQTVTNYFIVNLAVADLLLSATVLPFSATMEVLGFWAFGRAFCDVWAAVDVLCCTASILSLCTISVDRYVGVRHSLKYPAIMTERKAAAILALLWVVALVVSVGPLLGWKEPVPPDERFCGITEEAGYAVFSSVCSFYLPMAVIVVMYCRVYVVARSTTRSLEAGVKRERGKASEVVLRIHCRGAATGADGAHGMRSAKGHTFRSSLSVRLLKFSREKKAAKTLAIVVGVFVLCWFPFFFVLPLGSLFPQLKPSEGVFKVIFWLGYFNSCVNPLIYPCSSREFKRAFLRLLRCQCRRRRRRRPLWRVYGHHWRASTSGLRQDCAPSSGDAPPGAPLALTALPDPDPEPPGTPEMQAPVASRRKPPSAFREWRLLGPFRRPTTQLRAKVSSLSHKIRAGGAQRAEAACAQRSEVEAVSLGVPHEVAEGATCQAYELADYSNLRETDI
Procedure: To evaluate in radioligand binding assays the activity of compounds of the invention, human recombinant adrenergic a1D receptor expressed in human embryonic kidney (HEK-293) cells (Kenny, B. A. et al. Br. J. Pharmacol. 115(6):981, 1995) in a 50 mM Tris-HCl buffer, pH 7.4, was used. Compounds of invention were incubated with 0.6 nM [^3H]Prozosin for 60 minutes at 25° C. Non-specific binding was estimated in the presence of 10 μM phentolamine. Receptor proteins were filtered and washed, the filters were then counted to determine [^3H]Prozosin specifically bound. Compounds were screened at 1 μM or lower, using 1% DMSO as vehicle. Biochemical assay results are presented as the percent inhibition of specific binding in Table 4. Adrenergic a2A

[4] = molecular target: T4, human recombinant histamine H2 receptor (Homo sapiens, UniProt P25021); assay: Histamine H2 radioligand binding ([125I]Aminopotentidine); conditions: 1 μM; inhibition of specific [125I]Aminopotentidine binding; read-out: Binding data (Percentage Inhibition) Histamine Binding (1 μM) H2
T4 construct: expressed in transfected cells; host or cells: CHO-K1 cells
T4 sequence (P25021 whole entry): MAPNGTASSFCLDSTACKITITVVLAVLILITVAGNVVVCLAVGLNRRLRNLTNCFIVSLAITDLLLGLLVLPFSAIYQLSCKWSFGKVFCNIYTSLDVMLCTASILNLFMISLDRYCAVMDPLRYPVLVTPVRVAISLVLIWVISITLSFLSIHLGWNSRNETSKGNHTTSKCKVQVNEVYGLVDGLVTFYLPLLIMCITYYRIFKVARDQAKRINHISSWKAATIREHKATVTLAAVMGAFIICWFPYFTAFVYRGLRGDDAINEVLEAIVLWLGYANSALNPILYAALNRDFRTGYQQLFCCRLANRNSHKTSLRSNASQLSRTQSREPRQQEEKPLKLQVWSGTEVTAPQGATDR
In short: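 Membranes of CHO-K1 cells expressing human H2 receptor incubated with 0.1 nM [125I]aminopotentidine, 120 min, 25 °C, 50 mM phosphate pH 7.4; nonspecific binding defined with 3 μM tiotidine.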

Row | SMILES | inhibition at 1 µM [1] [%] | inhibition at 1 µM [2] [%] | inhibition at 1 µM [3] [%] | inhibition at 1 µM [4] [%] | Percent Inhibition of ligand binding Serotonin (1 μM ligand concentration) 5-HT2C ([2]; 1 μM ligand concentration) [%]
1 | CN1CCc2c(n(CCC3CCCC3)c3ccc(Cl)cc23)C1 [Compound 35, 6-chloro-9-(2-cyclopentylethyl)-2,3,4,9-tetrahydro-2-methyl-1H-pyrido[3,4-b]indole] | 65 | 87 | 60 | 67 | 
2 | CC1CCN(C(=O)Cn2c3c(c4cc(Cl)ccc42)CCN(C)C3)CC1 [Compound 38, 2-(6-chloro-1,2,3,4-tetrahydro-2-methylpyrido[3,4-b]indol-9-yl)-1-(4-methylpiperidin-1-vyl)ethanone] | 15 | 14 | 25 | 3 | 
3 | CN1CCc2c(n(CC(=O)N3CCCC3)c3ccc(Cl)cc23)C1 [Compound 40, 2-(6-chloro-1,2,3,4-tetrahydro-2-methylpyrido[3,4-b]indol-9-yl)-1-(pyrrolidin-1-yl)ethanone] | 18 | 12 | 3 | 4 | 
4 | Cc1ccc2c(c1)c1c(n2CCC(=O)N2CCCCC2)CN(C)CC1 [Compound 43, 3-(1,2,3,4-tetrahydro-2,6-dimethylpyrido[3,4-b]indol-9-yl)-1-(piperidin-1-yl)propan-1-one] | -14 | 31 | 58 | 6 | 
5 | CN1CCc2c(n(CCCC(=O)N3CCCCC3)c3ccc(Cl)cc23)C1 [Compound 44, 4-(6-chloro-1,2,3,4-tetrahydro-2-methylpyrido[3,4-b]indol-9-yl)-1-(piperidin-1-yl)butan-1-one] | 20 | 54 | 61 | 9 | 
6 | CN1CCc2c(n(CC(=O)O)c3ccc(Cl)cc23)C1 [Compound 52, 2-(6-chloro-1,2,3,4-tetrahydro-2-methylpyrido[3,4-b]indol-9-yl)acetic acid] | 9 | -4 | -11 | -5 | 
7 | Cc1ccc2c(c1)c1c(n2CC(=O)O)CN(C)CC1 [Compound 53, 2-(1,2,3,4-tetrahydro-2,6-dimethylpyrido[3,4-b]indol-9-yl)acetic acid] | 6 | -3 | 6 | 0 | 
8 | COC(=O)Cn1c2c(c3cc(Cl)ccc31)CCN(C)C2 [Compound 54, methyl 2-(6-chloro-2-methyl-3,4-dihydro-1H-pyrido[3,4-b]indol-9(2H)-yl)acetate] | 18 |  | 11 | 21 | −1
9 | CN1CCc2c(n(CC(=O)N3CCNCC3)c3ccc(Cl)cc23)C1 [Compound 55, 2-(6-chloro-2-methyl-3,4-dihydro-1H-pyrido[3,4-b]indol-9(2H)-yl)-1-(piperazin-1-yl)ethanone] | -21 | 13 | 10 | 2 | 
10 | Cc1ccc(CCCn2c3c(c4cc(Cl)ccc42)CCN(C)C3)cn1 [Compound 56, 6-chloro-2-methyl-9-(3-(6-methylpyridin-3-yl)propyl)-2,3,4,9-tetrahydro-1H-pyrido[3,4-b]indole] | -10 | -3 | 16 | 20 | 
11 | Cc1ccc2c(c1)c1c(n2CC(=O)N2CCCCC2)CN(C)CC1 [Compound 57, 2-(2,6-dimethyl-3,4-dihydro-1H-pyrido[3,4-b]indol-9(2H)-yl)-1-(piperidin-1-yl)ethanone] | 29 | 14 | 77 | 10 | 
12 | CN1CCc2c(n(CC(=O)N3CCCCC3)c3ccc(Cl)cc23)C1 [Compound 58, 2-(6-chloro-2-methyl-3,4-dihydro-1H-pyrido[3,4-b]indol-9(2H)-yl)-1-(piperidin-1-yl)ethanone] | -15 | 30 | 19 | 11 | 
13 | CN1CCc2c(n(CC(O)c3ccccc3F)c3ccc(Cl)cc23)C1 (stereo not drawn) [Compound 59, 2-(6-chloro-2-methyl-3,4-dihydro-1H-pyrido[3,4-b]indol-9(2H)-yl)-1-(2-fluorophenyl)ethanol] | 97 | 74 | 30 | 28 | 
14 | Cc1ccc2c(c1)c1c(n2CC(O)c2ccccc2F)CN(C)CC1 (stereo not drawn) [Compound 60, 2-(2,6-dimethyl-3,4-dihydro-1H-pyrido[3,4-b]indol-9(2H)-yl)-1-(2-fluorophenyl)ethanol] | -5 | 5 | 29 | 15 | 
15 | Cc1ccc2c(c1)c1c(n2CC(C)(O)c2ccc(F)cc2)CN(C)CC1 (stereo not drawn) [Compound 61, 1-(2,6-dimethyl-3,4-dihydro-1H-pyrido[3,4-b]indol-9(2H)-yl)-2-(4-fluorophenyl)propan-2-ol] | 101 | 81 | 49 | 17 | 
16 | CN1CCc2c(n(CC(C)(O)c3ccc(F)cc3)c3ccc(Cl)cc23)C1 (stereo not drawn) [Compound 62, 1-(6-chloro-2-methyl-3,4-dihydro-1H-pyrido[3,4-b]indol-9(2H)-yl)-2-(4-fluorophenyl)propan-2-ol] | 102 | 95 | 44 | 48 | 
17 | COc1ccc(C(O)Cn2c3c(c4cc(C)ccc42)CCN(C)C3)cc1OC (stereo not drawn) [Compound 66] | 74 | 48 | 74 | 1 | 
18 | Cc1ccc2c(c1)c1c(n2CC(O)c2ccccc2)CN(C)CC1 (stereo not drawn) [Compound 67] | 106 | 85 | 85 | 8 | 
